Experimental data published in patent US6599713B1, “Method for quantitating leukocyte count in whole blood sample” (priority 1999, dated 2003).

How the values were obtained:
[1] = system: white blood cells contained in the whole blood; assay: Time required for lyzing white blood cells: MPO released from whole blood by surfactant, MPO enzyme immunoassay kit (Example 1); type: cell-based, human; details: room temperature; for MPO concentration of whole blood: 100 μl of 11% solution per 1 ml healthy human whole blood, mean ± SD of 3
Method: 10 ml of healthy human whole blood was collected in a test tube containing 10 mg of EDTA-2K (manufactured and sold by Dojin Laboratories, Japan) and the resultant EDTA-containing whole blood sample was stirred well, and then 1 ml of the whole blood sample was taken out from the test tube. To the 1 ml whole blood sample taken out from the test tube was added 100 μl of an aqueous 11% solution of Triton™ X-100 (manufactured and sold under the brand of SIGMA™, U.S.A.), and the resultant mixture was stirred well and then allowed to stand at room temperature for 1 minute to obtain a (whole blood sample/surfactant) mixture containing the lyzed white blood cells. Substantially the same operation as mentioned above was repeated except that the standing time at room temperature was changed to 5 minutes, 30 minutes and 60 minutes to thereby lyze the white blood cells contained in the whole blood.
After the above-mentioned period of time, each of the obtained (whole blood sample/surfactant) mixtures containing the lyzed white blood cells was individually diluted 2,000-fold with a sample diluting buffer (20 mM phosphate buffer (pH 7.4) containing 0.1% bovine serum albumin and 0.2% sodium azide), which buffer is attached to BIOXYTEC™ MPO Enzyme Immunoassay kit (manufactured and sold by OXIS International, Inc., U.S.A.), and the resultant diluted mixture was taken as a sample for the measurement of myeloperoxidase (MPO).
With respect to the above-mentioned sample for the measurement of MPO and a standard MPO solution (which is obtained by dissolving commercially available MPO in the above mentioned buffer), the measurement of the MPO concentration was performed using BIOXYTEC™ MPO Enzyme Immunoassay kit (manufactured and sold by OXIS International, Inc., U.S.A.) in accordance with the instruction manual attached thereto.
(§1) Specifically, with respect to the measurement of the MPO concentration of the above-mentioned sample, MPO (manufactured and sold by Elastin Products Co., INC., U.S.A.) was added to the sample so that the final concentration of the added MPO became 5 ng/ml or 10 ng/ml, and the resultant mixture was measured with respect to the MPO concentration. From the obtained value of MPO concentration, a calibration curve for each sample was obtained. The obtained calibration curve was corrected, based on its relationship with a calibration curve obtained with respect to the standard MPO solution, and the corrected calibration curve of each sample was used to determine the MPO concentration of the whole blood. The measurement was conducted 3 times, and a mean value±standard deviation was obtained.

[2] = system: white blood cells contained in a whole blood sample; assay: MPO-releasing effects of various surfactants on whole blood, ELISA (Examples 3 to 5); type: cell-based, human; details: Example 3 (Table 3): 500 μl blood + 500 μl 1% (w/v) surfactant solution, 60 minutes on ice, mean ± SD of 3
Method: 10 ml of healthy human whole blood was collected using a 28 G winged intravenous injection needle (manufactured and sold by Terumo Corporation, Japan), and immediately mixed with 10 mg of EDTA-2K (manufactured and sold by Dojin Laboratories, Japan), and the resultant EDTA-containing whole blood sample was subjected to the below-described various measurements within 1 hour from the blood collection.
500 μl of the blood was put in a 2-ml Eppendorf tube, and 500 μl of a 1% (w/v) aqueous surfactant solution was added to the tube, and the resultant mixture was stirred for 2 seconds by a Vortex mixer. Subsequently, the mixture was allowed to stand for 60 minutes on ice to thereby lyze the white blood cells. After the lysis of the white blood cells, 100 μl of the mixture was taken out and added to 900 μl of a PBS solution containing dissolved therein 1% BSA (trade name: “Sigma fraction V”, manufactured and sold under the brand of SIGMA™, U.S.A.). The resultant mixture was stirred by a Vortex mixer, and then 10 μl of the mixture was taken out and diluted 2,000-fold with 1% BSA/PBS solution. The resultant diluted mixture was subjected to a measurement by ELISA.
The outline of the ELISA is as follows. A 5 μg/ml PBS solution of an anti-MPO antibody was put into the wells of a Nunc Immuno Plate (manufactured and sold by Nalge Nunc International, Denmark) in an amount of 100 μl per well. The solution in each well was sealed and subjected to a reaction for 18 hours at 4° C. thereby immobilizing the primary antibody. The wells were washed with a washing solution (0.05% Tween™ 20/PBS) and then subjected to blocking for 1 hour at room temperature by using 200 μl of a blocking solution (1% BSA/PBS), and then washed twice with the washing solution. […] The wells were washed 5 times with a washing solution, and 100 μl of a just-prepared TMB solution (manufactured and sold by Kirkegaad & Perry Laboratories, U.S.A.) was added thereto to effect a color reaction. 2 Minutes after the start of the color reaction, 100 μl of a 1 N sulfuric acid solution (manufactured and sold by Nacalai Tesque, Inc., Japan) was added to the wells to thereby terminate the reaction. Then, the absorbance at 450 nm was measured by means of a plate reader (manufactured and sold by Bio-Rad Laboratories, U.S.A.).
as §1, with “With respect to” for “Specifically, with respect to”, “of the sample, MPO” for “of the above-mentioned sample, MPO”, “respect to a standard MPO” for “respect to the standard MPO”

**Q.** For “α-[4-(1,1,3,3,-Tetramethylbutyl)phenyl]-ω-hydroxypoly(oxy-1,2-ethanediyl) [Triton ™ X-100]”, which “Time from start of treatment within which MPO is released from the white blood cells to a satisfactory extent” value ([1]; healthy human whole blood) is on record?
**A.** ≤ 60 min

**Q.** And the “MPO concentration of whole blood” value ([1]; treatment time 1 minute)?
**A.** 9.88 ± 0.50 µg/mL

**Q.** What about the “MPO concentration of whole blood” value ([1]; treatment time 5 minutes) of the same substance?
**A.** 10.17 ± 0.63 µg/mL

**Q.** What about the “MPO concentration of whole blood” value ([1]; treatment time 30 minutes) of the same substance?
**A.** 9.94 ± 0.72 µg/mL

**Q.** What about the “MPO concentration of whole blood” value ([1]; treatment time 60 minutes) of the same substance?
**A.** 10.01 ± 0.22 µg/mL

**Q.** And the “MPO concentration of whole blood” value [2]?
**A.** 6.43 ± 1.25 µg/mL
